According to patent US9889087B2, “Intranasal delivery of β2-adrenergic receptor agonists for improving cognition in humans with down syndrome and compositions therefor” (priority 2014, dated 2018):
Values after ≈ are worked out from the molar mass of the structure shown. Read-outs that look alike come from different tables or passages of the source.

Experiments:
Ts65Dn and 2N mice [1] = test: BrdU cell proliferation count in the DG; assay type: in vivo, mouse; settings: nadolol alone or nadolol + formoterol
Procedure: To identify proliferating cells, we used 5-bromo-2′-deoxyuridine (BrdU, Sigma). It was dissolved in PBS, filtered, and kept at 4° C. till use. After 15 days of treatment, each mouse was injected IP daily (50 mg/kg) with BrdU solution for 5 days. Thereafter, on day 21, all mice were anesthetized and transcardially perfused with ice-cold saline. The entire brain was immediately removed and the two hemispheres were separated. The left hemisphere was fixed overnight, cut, and stored. […] This was followed by incubation of sections in ABC.
Stereo-Investigator (MBF) was used to quantify the total number of BrdU-positive cells in the entire septo-temporal extent of DG. Following the outlining of the DG area at 4×, each positive profile was identified using a 100× oil objective. […] A Nanozoomer system (Hamamatsu 2.0 RS) was used to capture images of the entire slide in each case. High magnification images were captured using the Nanozoomer and stored.

Ts65Dn mice = settings: cited from earlier work; for contextual learning: earlier studies
Ts65Dn and 2N mice [2] = test: Cardiovascular and respiratory system monitoring (MouseOx vital signs); assay type: in vivo, mouse; settings: 2N and Ts65Dn mice
Procedure: Cardiovascular and Respiratory System Monitoring. […] The monitor was attached to a collar clip with an LED sensor to enable recordings in free-moving mice. To minimize stress before recording, the collar clip was attached to each animal. After five minutes, heart rate, respiratory rate, and oxygen saturation were recorded using MOUSEOX® 6.3.13 for 10 minutes.

Ts65Dn and 2N mice [3] = tested on: Ts65Dn and 2N mice
Procedure: b) Fear Conditioning. […] The fear conditioning tests were done using four FreezeScan chambers (Clever Sys) on days 4 and 5 after the start of the open field-testing. […] Four hours later, the mice were placed in the fear-conditioning chamber and their baseline activity was recorded for three minutes. At the end of this period, each mouse was exposed to five shocks (2 seconds each, 0.5 mA) with inter-trial intervals of 80 seconds. Twenty-four hours later, the mice were injected again, similar to the Training Day, and returned to the same fear-conditioning chamber for five minutes and their activity was recorded. Freezing was defined as a lack of movement for 3 frames.

Ts65Dn and 2N mice [4] = settings: intranasal 2 mg per kg for 5 days
Source text: Mice were acclimated to handling for a period of two weeks before the onset of intranasal dosing. Acclimation helped to ensure a correct body position for maximum effectiveness of awake intranasal drug delivery. In addition, acclimation prevented the occurrence of anxiety reaction after dosing. Mice spent about 2-3 days on each of nine steps before progressing to the next step, depending upon the animal's comfort to handling. The mouse's stress level was used as a measure of progress. To do this, the mouse's movements, the amount and frequency of urination, defecation, trembling and biting were assessed.
7) The mouse was placed back on top of his cage for 2 min. and the entire process was repeated starting 2 min. after delivery of the first drop. All together the mouse received four drops of up to 6 μl each totaling a maximum volume of 24 μl of solution.
The training began on the 4th day of intranasal dosing.
The testing day was done on the 5th and final day of dosing.
The first trial for each mouse was done 3 hours post-intranasal dose.
6) The number of incorrect arm entries was quantified. Entries into the goal arm were not counted as errors, even if the platform was not located. An entry was considered to occur when all four legs of the mouse had entered the alley completely and the mouse was parallel to the alley walls. […]

physchem = settings: water
[5] = in vivo; cited from earlier work

In the case of `CC(C)(C)NCC(O)COc1cccc2c1CC(O)C(O)C2` (stereo not shown) [nadolol], the “total number of BrdU-positive profiles in the DG” value (Ts65Dn and 2N mice [1]) is reported as 3,161.930±900.
In the case of `O=C(NCCNCC(O)COc1ccc(O)cc1)N1CCOCC1` (stereo not shown) [xamoterol], the contextual learning (Ts65Dn mice) is given as “significantly improve” and the “spatial learning and/or hyperactivity” value (Ts65Dn mice; later studies) is given as “did not improve”.
With `COc1ccc(CC(C)NCC(O)c2ccc(O)c(NC=O)c2)cc1` (stereo not shown) [formoterol] the “effect on oxygen saturation” value (Ts65Dn and 2N mice [2]; formoterol together with nadolol) was “no significant effects”, the “effect on heart rate” value (Ts65Dn and 2N mice [2]; ANOVA treatment effect) was “No significant effects” and the “effect on respiratory rate” value (Ts65Dn and 2N mice [2]; ANOVA treatment effect) was “No significant effects”. The contextual learning (Ts65Dn and 2N mice [3]; 2N mice) was “improvement”, the contextual learning (Ts65Dn and 2N mice [3]; Ts65Dn mice, 6 months, vs nadolol only) was “significant improvement” and the “freezing behavior within first five minutes in context” value (Ts65Dn and 2N mice [3]; Ts65Dn mice, vs nadolol only) was “significant increase”. The spatial learning (Ts65Dn and 2N mice [4]) was “significant improvement”, the solubility (physchem) was about 17.2 mg/mL (≈ 49.9 mM) and the “crossing of the blood brain barrier” value [5] was “cross the blood brain barrier”.
In the case of `N[C@H](C(=O)O)[C@H](O)c1ccc(O)c(O)c1` [L-DOPS, L-threo-3,4-dihydroxyphenylserine], the contextual learning (Ts65Dn mice) is given as “restored”.
